Data on 13 compounds can be found in patent US10519154B2, “7-substituted 1-pyridyl-naphthyridine-3-carboxylic acid amides and use thereof” (Bayer Pharma Aktiengesellschaft, priority 2016, dated 2019).

The target in assay [1] is T1, human M2 receptor (Homo sapiens, UniProt P08172).
T1 sequence (P08172 1-466): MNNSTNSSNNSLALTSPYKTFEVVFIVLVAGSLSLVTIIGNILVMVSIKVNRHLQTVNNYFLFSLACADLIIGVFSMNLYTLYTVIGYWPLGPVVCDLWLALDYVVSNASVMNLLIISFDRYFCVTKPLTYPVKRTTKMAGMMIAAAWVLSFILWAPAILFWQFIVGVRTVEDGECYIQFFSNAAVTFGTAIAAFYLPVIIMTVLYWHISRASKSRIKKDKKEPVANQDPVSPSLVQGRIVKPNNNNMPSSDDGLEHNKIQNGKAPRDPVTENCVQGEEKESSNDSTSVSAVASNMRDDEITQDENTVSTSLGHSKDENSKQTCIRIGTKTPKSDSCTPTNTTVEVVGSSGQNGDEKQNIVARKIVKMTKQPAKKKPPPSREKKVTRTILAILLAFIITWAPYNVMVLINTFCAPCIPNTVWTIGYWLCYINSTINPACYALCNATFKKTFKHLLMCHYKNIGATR
Kind of assay: Functional M2-GIRK1/4 activation test: allosteric potency (EC50) and efficiency. The note with it: for EC50: Receptor activity EC50, CHO-DUKX-M2-GIRK cells, acetylcholine at EC20, in some cases mean of two or more determinations; for Emax: read-out: Efficiency, boosting of the acetylcholine effect at EC20 acetylcholine concentration; for Emax / Efficiency: CHO-DUKX-M2-GIRK cells; for Efficiency: boosting of the acetylcholine effect at EC20 acetylcholine concentration.

Assay [2] concerns the target T1, human M2 receptor. Nature of the assay: Functional M2-GIRK1/4 activation test: positive cooperativity (alpha factor). The note with it: shift of acetylcholine dose-response curve (Allosteric EC50 shift); CHO-DUKX-M2-GIRK cells.
Text: The binding of orthosteric agonists (endogenous ligand: acetylcholine) to the M2 receptor leads to receptor activation or a change in conformation of the receptor in the manner of a shift in equilibrium in favor of the active receptor conformation.
The agonist-induced change in conformation of the M2 receptor results in a Gαi protein activation. […] Under physiological conditions, the result is then a selective efflux of potassium from the cell along the electrochemical gradient. […] The extent of hyperpolarization can therefore be regarded as a measure of the activation of the M2 receptor.
The test cell used is a recombinant CHO-DUKX cell line which has been stably transfected with cDNA coding for the human M2 receptor and with cDNA coding for both GIRK1/4 subunits (CHO-DUKX-M2-GIRK). The transmembrane potential, or the relative changes in the transmembrane potential as a function of substance addition or M2 activation, is determined by means of a voltage-sensitive dye (FLIPR Membrane Potential Assay Kit Blue, Molecular Devices #R8034) and the measurement of cell fluorescence using a proprietary fluorescence imaging instrument.
In accordance with the desired test concentrations, the substances were pre-diluted in loading buffer (see above).
The sowing medium consisted of MEM alpha medium (supplemented with 5% FCS, 2% Glutamax, no genticin).
For the particular measurement, the medium was removed and the cells were laden with the voltage-sensitive dye for at least 6 min at room temperature (30 μl of loading buffer per 384-well). This was followed, in a first measurement, by the determination of the resting transmembrane potential for a period of 5 sec in 1 sec increments. Thereafter, 10 μl in each case of the test substances diluted in loading buffer are added, followed by a second measurement to determine the transmembrane potential for a period of 50 sec in 1 sec increments.
Finally, the cells are admixed with 10 μl of agonist solution (acetylcholine dissolved in loading buffer). In contrast to the EC50 determination of the test substances (see B-1.1), however, this is not done using one acetylcholine concentration; instead, every concentration of the test substance is combined with an acetylcholine 8-point dose-response curve. […] The M2-mediated GIRK1/4 activation or hyperpolarization is then monitored in a third measurement over a period of 60 sec in 1 sec increments. The shift in the acetylcholine dose-response curve in the presence of increasing concentrations of the test substance is analyzed and quantified by means of GraphPad PRISM (Allosteric EC50 shift). […] Positive cooperativity is the hallmark of a positive allosteric modulator. […] The greater the magnitude of the cc value, the greater the extent of cooperativity between orthosteric and allosteric.

Turning to `O=C(Nc1c(Cl)cccc1Cl)c1cn(-c2ncc(F)cc2F)c2nc(N3C[C@@H](O)CC3=O)ccc2c1=O` [Example 16, N-(2,6-Dichlorophenyl)-1-(3,5-difluoropyridin-2-yl)-7-[(4S)-4-hydroxy-2-oxopyrrolidin-1-yl]-4-oxo-1,4-dihydro-1,8-naphthyridine-3-carboxamide], at human M2 receptor [1], it took 48 nM to reach a half-maximal effect (EC50) and the Emax is 99%. For the same compound, the “Cooperativity (alpha factor)” value on human M2 receptor [2] is on record as 40.

On to `CC[C@H](NC(=O)c1cn(-c2ncc(F)cc2F)c2nc(N3CCNC3=O)ccc2c1=O)C(F)(F)F` [Example 64, 1-(3,5-Difluoropyridin-2-yl)-4-oxo-7-(2-oxoimidazolidin-1-yl)-N-[(2S)-1,1,1-trifluorobutan-2-yl]-1,4-dihydro-1,8-naphthyridine-3-carboxamide], for which, at human M2 receptor [1], a half-maximal effect (EC50) was put at 154 nM and the Emax was 91.3%. Moreover, the “Cooperativity (alpha factor)” value at human M2 receptor [2] was determined as 32.

Consider `CCC(COC(F)(F)F)NC(=O)c1cn(-c2ncc(F)cc2F)c2nc(N3C[C@@H](O)CC3=O)ccc2c1=O` (mixture of isomers) [Example 17, 1-(3,5-Difluoropyridin-2-yl)-7-[(4S)-4-hydroxy-2-oxopyrrolidin-1-yl]-4-oxo-N-[1-(trifluoromethoxy)butan-2-yl]-1,4-dihydro-1,8-naphthyridine-3-carboxamide], for which, at human M2 receptor [1], a half-maximal response (EC50) required 111 nM and the Emax is 88%. Besides, the “Cooperativity (alpha factor)” value on human M2 receptor [2] turned out to be 24.

As to `CC(NC(=O)c1cn(-c2ncc(F)cc2F)c2nc(N3C[C@@H](O)[C@H](O)C3)ccc2c1=O)C(F)(F)C(F)(F)F` (single isomer, unassigned) [Example 90], at human M2 receptor [1], the EC50 came to 24 nM and the Efficiency is listed as 100.00%. Moreover, the “Cooperativity (alpha factor)” value on human M2 receptor [2] was 41.

As for `CCC(COC(F)(F)F)NC(=O)c1cn(-c2ncc(F)cc2F)c2nc(N3C[C@@H](O)CC3=O)ccc2c1=O` (single isomer, unassigned) [Example 18], at human M2 receptor [1], a half-maximal response (EC50) required 67 nM and the Emax was determined as 87%. Further, the “Cooperativity (alpha factor)” value at human M2 receptor [2] is reported as 34.

Take `CC1CC(=O)N(c2ccc3c(=O)c(C(=O)N[C@H](C4CC4)C(F)(F)F)cn(-c4ncc(F)cc4F)c3n2)C1` (single isomer, unassigned) [Example 28]: at human M2 receptor [1], the half-maximal effective concentration (EC50) was determined as 19 nM and the Emax was determined as 100%. The “Cooperativity (alpha factor)” value at human M2 receptor [2] is listed as 17.

For the compound `O=C(Nc1c(Cl)cccc1Cl)c1cn(-c2ncc(F)cc2F)c2nc(N3C[C@@H](O)[C@H](O)C3)ccc2c1=O` [Example 67, N-(2,6-Dichlorophenyl)-1-(3,5-difluoropyridin-2-yl)-7-[(3R,4R)-3,4-dihydroxypyrrolidin-1-yl]-4-oxo-1,4-dihydro-1,8-naphthyridine-3-carboxamide], on human M2 receptor [1], the EC50 was 53 nM and the Emax worked out at 97%. Also, the “Cooperativity (alpha factor)” value at human M2 receptor [2] came to 36.

For `O=C(NC(C(F)(F)F)C(F)(F)F)c1cn(-c2ncc(F)cc2F)c2nc(N3C[C@@H](O)[C@@H](O)C3)ccc2c1=O` [Example 55, 1-(3,5-Difluoropyridin-2-yl)-7-[(3R,4S)-3,4-dihydroxypyrrolidin-1-yl]-N-(1,1,1,3,3,3-hexafluoropropan-2-yl)-4-oxo-1,4-dihydro-1,8-naphthyridine-3-carboxamide], at human M2 receptor [1], the EC50 came out at 110 nM and the Emax is 100%. On human M2 receptor [2], the “Cooperativity (alpha factor)” value stood at 79.

On human M2 receptor [1], `CCC(COC(F)(F)F)NC(=O)c1cn(-c2ncc(F)cc2F)c2nc(N3C[C@@H](O)CC3=O)ccc2c1=O` (single isomer, unassigned) [Example 19] displayed an EC50 of 86 nM and an Efficiency of 91.50%. Further, on human M2 receptor [2], the “Cooperativity (alpha factor)” value is 38.

With `O=C(NC(C(F)(F)F)C(F)(F)F)c1cn(-c2ncc(F)cc2F)c2nc(N3C[C@@H](O)CC3=O)ccc2c1=O` [Example 15, 1-(3,5-Difluoropyridin-2-yl)-N-(1,1,1,3,3,3-hexafluoropropan-2-yl)-7-[(4S)-4-hydroxy-2-oxopyrrolidin-1-yl]-4-oxo-1,4-dihydro-1,8-naphthyridine-3-carboxamide], at human M2 receptor [1], the EC50 amounted to 43 nM and the Emax is 96.2%. The “Cooperativity (alpha factor)” value at human M2 receptor [2] worked out at 63.

On human M2 receptor [1], `CCC(NC(=O)c1cn(-c2ncc(F)cc2F)c2nc(N3C[C@@H](O)[C@H](O)C3)ccc2c1=O)C(F)(F)C(F)(F)F` (single isomer, unassigned) [Example 97] came in with an EC50 of 38 nM and an Efficiency of 96.50%. Also, the “Cooperativity (alpha factor)” value at human M2 receptor [2] stood at 53.

Consider `O=C(N[C@@H](C1CC1)C(F)(F)F)c1cn(-c2ncc(F)cc2F)c2nc(N3C[C@@H](O)CC3=O)ccc2c1=O` [Example 14, N-[(1S)-1-Cyclopropyl-2,2,2-trifluoroethyl]-1-(3,5-difluoropyridin-2-yl)-7-[(4S)-4-hydroxy-2-oxopyrrolidin-1-yl]-4-oxo-1,4-dihydro-1,8-naphthyridine-3-carboxamide], for which, on human M2 receptor [1], it took 87 nM to reach a half-maximal effect (EC50) and the Emax came out at 98.5%. Also, the “Cooperativity (alpha factor)” value on human M2 receptor [2] was found to be 50.

Turning to `CC[C@@H](NC(=O)c1cn(-c2ncccc2F)c2nc(N3C[C@@H](O)CC3=O)ccc2c1=O)C(F)(F)F` [Example 140, 1-(3-Fluoropyridin-2-yl)-7-[(4S)-4-hydroxy-2-oxopyrrolidin-1-yl]-4-oxo-N-[(2R)-1,1,1-trifluorobutan-2-yl]-1,4-dihydro-1,8-naphthyridine-3-carboxamide], on human M2 receptor [1], the half-maximal effective concentration (EC50) was determined as 253 nM and the Emax amounted to 92%. Also, the “Cooperativity (alpha factor)” value at human M2 receptor [2] stood at 47.
